The values below come from ChEMBL document CHEMBL4706648, “Antitubercular 2-Pyrazolylpyrimidinones: Structure-Activity Relationship and Mode-of-Action Studies” (J Med Chem, 2021).

In data set [1] the test system is Mycobacterium tuberculosis. The data set is described as follows: Upregulation of rv1345 in Mycobacterium tuberculosis H37Rv assessed as fold change incubated for 6 hrs by microarray based assay. In kind it is functional.
The subject of data set [2] is Mycobacterium tuberculosis. Format: functional. To be noted: H37Rv, time 6.0 hrs.
Data set [3] concerns Mycobacterium tuberculosis. Format: functional. To be noted: H37Rv, 168 h, time 7 day.
Data set [4] deals with Mycobacterium tuberculosis. In kind it is functional. Conditions: H37Rv, time 6.0 hrs. This is another data set of the same source.
Data set [5] relates to Mycobacterium tuberculosis. Put plainly: Upregulation of rv1348 in Mycobacterium tuberculosis H37Rv assessed as fold change incubated for 6 hrs by microarray based assay. In kind it is functional.
The nature of data set [6]: Metabolic stability in human liver microsomes assessed as parent compound remaining after 30 mins. Format: ADME, Microsome. To be noted: 0.5 h. On the technique in general: Microsomes from liver hold many membrane-bound enzymes, among them those of drug oxidation.
Data set [7] in a line: Metabolic stability in mouse liver microsomes assessed as parent compound remaining after 30 mins. In kind it is ADME, Microsome. Conditions: 0.5 h.
A further data set concerns CHO. Put plainly: Cytotoxicity against CHO cells assessed as reduction in cell viability by MTT assay. Conditions: Cricetulus griseus. In kind it is cell-based. For orientation: Tetrazolium dyes change colour on reduction, which living cells bring about.
Data set [8] has as its system Mycobacterium tuberculosis. The data set is described as follows: Upregulation of rv2384 in Mycobacterium tuberculosis H37Rv incubated for 6 hrs by microarray based assay. In kind it is functional.
Data set [9] is described as follows: Metal chelating activity assessed as Fe2+-compound complex formation by measuring decrease in band intensity at 10 uM measured after 1 hr in presence of ferrous sulphate by UV-Visible spectrophotometric analysis.
Data set [10] can be described thus: Metabolic stability in rat liver microsomes assessed as parent compound remaining after 30 mins. Format: ADME, Microsome. Conditions: 0.5 h.
In data set [11] the test system is Mycobacterium tuberculosis. In kind it is functional. To be noted: H37Rv, time 6.0 hrs. The source holds these as a separate data set.
Data set [12] deals with Mycobacterium tuberculosis. In kind it is functional. To be noted: H37Rv, time 6.0 hrs. This is another data set of the same source.
For data set [13], the system named is Mycobacterium tuberculosis. Put plainly: Upregulation of rv3269 in Mycobacterium tuberculosis H37Rv incubated for 6 hrs by microarray based assay. Format: functional.
In data set [14] the test system is Mycobacterium tuberculosis. Put plainly: Upregulation of rv1347 in Mycobacterium tuberculosis H37Rv assessed as fold change incubated for 6 hrs by microarray based assay. Format: functional.
A short description of data set [15]: Kinetic solubility of compound at 200 uM at pH 7.4 measured after 20 hrs by HPLC-DAD analysis. To be noted: buffer, pH 7.4, 20 h. Format: physicochemical.
For data set [16], the system named is Mycobacterium tuberculosis. The data set is described as follows: Upregulation of rv1349 in Mycobacterium tuberculosis H37Rv assessed as fold change incubated for 6 hrs by microarray based assay. In kind it is functional.
Data set [17] relates to Mycobacterium tuberculosis. Format: functional. To be noted: H37Rv, time 6.0 hrs. The source holds these as a separate data set.
Data set [18] has as its system Mycobacterium tuberculosis. The data set is described as follows: Upregulation of rv1346 in Mycobacterium tuberculosis H37Rv assessed as fold change incubated for 6 hrs by microarray based assay. In kind it is functional.
For data set [19], the system named is Mycobacterium tuberculosis. The data set is described as follows: Upregulation of rv1342 in Mycobacterium tuberculosis H37Rv assessed as fold change incubated for 6 hrs by microarray based assay. In kind it is functional.
Data set [20] concerns Mycobacterium tuberculosis. Put plainly: Upregulation of rv1344 in Mycobacterium tuberculosis H37Rv assessed as fold change incubated for 6 hrs by microarray based assay. In kind it is functional.
For data set [21], the system named is Mycobacterium tuberculosis. The data set is described as follows: Upregulation of rv1343 in Mycobacterium tuberculosis H37Rv assessed as fold change incubated for 6 hrs by microarray based assay. Format: functional.
Data set [22] is described as follows: Aqueous solubility of compound at pH 7.4. In kind it is physicochemical.
In data set [23] the test system is Mycobacterium tuberculosis. Format: functional. To be noted: H37Rv, time 6.0 hrs. The source holds these as a separate data set.
Data set [24] has as its system Mycobacterium tuberculosis. In kind it is functional. To be noted: H37Rv, time 6.0 hrs. This is another data set of the same source.
The test system of data set [25] is Mycobacterium tuberculosis. Put plainly: Upregulation of rv3270 in Mycobacterium tuberculosis H37Rv incubated for 6 hrs by microarray based assay. In kind it is functional.
The test system of data set [26] is Mycobacterium tuberculosis. Format: functional. Conditions: H37Rv, time 6.0 hrs. The source holds these as a separate data set.
The subject of data set [27] is Mycobacterium tuberculosis. In kind it is functional, H37Rv. Conditions: time 7 day.
Data set [28] has as its system Mycobacterium tuberculosis. In kind it is functional. Conditions: H37Rv, 168 h, time 7 day. This is another data set of the same source.
Data set [29] deals with Mycobacterium tuberculosis. Put plainly: Upregulation of rv2385 in Mycobacterium tuberculosis H37Rv incubated for 6 hrs by microarray based assay. Format: functional.
The nature of data set [30]: Metal chelating activity assessed as Fe2+-compound complex formation by measuring shift in absorbance at 10 uM at 285 nm measured after 1 hr in presence of ferrous sulphate by UV-Visible spectrophotometric analysis.
Data set [31] deals with Mycobacterium tuberculosis. Format: functional. Conditions: H37Rv, 168 h, time 7 day. The source holds these as a separate data set.
The test system of a further data set is Vero. The data set is described as follows: Cytotoxicity against African green monkey Vero cells assessed as reduction in cell viability by MTT assay. In kind it is cell-based. Conditions: Chlorocebus sabaeus.
The test system of data set [32] is Mycobacterium tuberculosis. In kind it is functional. Conditions: H37Rv, 168 h, time 7 day. The source holds these as a separate data set.
The subject of data set [33] is Mycobacterium tuberculosis. The data set is described as follows: Antimycobacterial activity against wild-type Mycobacterium tuberculosis H37Rv assessed as inhibition of bacterial growth grown under middlebrook 7H9 medium incubated for 7 days by alamar blue broth microdilution method. Format: functional. Conditions: 168 h, time 7 day. On the technique in general: Alamar Blue is a resazurin reagent that responds to reducing activity.

The nature of data set [34]: Metabolic stability in human liver microsomes assessed as parent compound remaining at 1 uM in presence of NADPH by LC-MS/MS analysis. Format: ADME, Microsome.
Data set [35] can be described thus: Lipophilicity, log D of the compound in n-octanol and phosphate buffer at pH 7.4 measured after 3 hrs by HPLC-DAD analysis. Format: physicochemical.
For data set [36], the system named is Mycobacterium tuberculosis. The data set is described as follows: Antimycobacterial activity against mmpL3 gene silenced Mycobacterium tuberculosis H37Rv assessed as inhibition of bacterial growth grown under middlebrook 7H9 medium incubated for 7 days by alamar blue broth microdilution method. In kind it is functional, organism-based. Conditions: time 7.0 day.

For data set [37], the system named is Mycobacterium tuberculosis. In kind it is functional. Conditions: H37Rv, 168 h, time 7 day. The source holds these as a separate data set.
Data set [38] in a line: Metabolic stability in mouse liver microsomes assessed as parent compound remaining at 1 uM in presence of NADPH by LC-MS/MS analysis. In kind it is ADME, Microsome.
Data set [39] can be described thus: Metabolic stability in rat liver microsomes assessed as parent compound remaining at 1 uM in presence of NADPH by LC-MS/MS analysis. In kind it is ADME, Microsome.
Data set [40] deals with Mycobacterium tuberculosis. In kind it is functional. Conditions: H37Rv, 168 h, time 7 day. This is another data set of the same source.
The target of data set [41] is Voltage-gated inwardly rectifying potassium channel KCNH2 (Homo sapiens, UniProt Q12809). The data set is described as follows: Inhibition of human ERG.
Sequence of Voltage-gated inwardly rectifying potassium channel KCNH2 (Q12809 whole entry): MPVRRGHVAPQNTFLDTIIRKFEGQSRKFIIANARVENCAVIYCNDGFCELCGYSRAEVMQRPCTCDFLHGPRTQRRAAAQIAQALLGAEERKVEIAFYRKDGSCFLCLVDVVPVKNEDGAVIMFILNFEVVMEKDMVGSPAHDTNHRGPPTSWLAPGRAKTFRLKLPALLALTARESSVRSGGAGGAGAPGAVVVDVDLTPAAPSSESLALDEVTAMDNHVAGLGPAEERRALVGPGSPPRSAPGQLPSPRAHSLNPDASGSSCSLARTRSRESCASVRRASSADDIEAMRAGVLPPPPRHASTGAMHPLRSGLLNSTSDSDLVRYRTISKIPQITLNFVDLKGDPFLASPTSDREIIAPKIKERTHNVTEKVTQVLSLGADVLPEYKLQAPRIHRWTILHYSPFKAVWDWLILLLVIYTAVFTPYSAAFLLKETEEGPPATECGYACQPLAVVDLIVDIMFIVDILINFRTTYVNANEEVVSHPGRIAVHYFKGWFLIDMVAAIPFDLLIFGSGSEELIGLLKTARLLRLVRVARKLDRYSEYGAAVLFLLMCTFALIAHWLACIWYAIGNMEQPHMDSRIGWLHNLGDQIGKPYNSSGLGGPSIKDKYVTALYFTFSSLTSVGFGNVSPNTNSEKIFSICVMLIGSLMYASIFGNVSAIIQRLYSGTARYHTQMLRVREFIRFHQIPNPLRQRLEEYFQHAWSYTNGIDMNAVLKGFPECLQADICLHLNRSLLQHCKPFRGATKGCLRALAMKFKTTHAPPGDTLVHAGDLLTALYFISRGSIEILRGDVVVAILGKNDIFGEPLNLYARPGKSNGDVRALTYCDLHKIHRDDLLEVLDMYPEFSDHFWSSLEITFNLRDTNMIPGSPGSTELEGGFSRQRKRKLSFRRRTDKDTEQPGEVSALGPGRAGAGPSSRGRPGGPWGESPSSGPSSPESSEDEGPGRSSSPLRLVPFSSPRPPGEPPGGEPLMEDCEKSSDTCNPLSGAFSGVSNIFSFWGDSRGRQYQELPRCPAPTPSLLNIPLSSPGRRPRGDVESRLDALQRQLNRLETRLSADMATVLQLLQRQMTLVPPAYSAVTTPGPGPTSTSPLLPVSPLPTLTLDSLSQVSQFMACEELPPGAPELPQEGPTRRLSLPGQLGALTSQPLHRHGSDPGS
Data set [42] deals with HepG2. The data set is described as follows: Antiproliferative activity against human HepG2 cells assessed as reduction in cell viability grown under galactose medium by MTT assay. Format: functional, cell-based.
Data set [43] concerns Mycobacterium tuberculosis. Format: functional. To be noted: H37Rv, 168 h, time 7 day. This is another data set of the same source.
Data set [44] is described as follows: Solubility of compound at 3 uM. In kind it is physicochemical.
In data set [45] the test system is HepG2. Put plainly: Antiproliferative activity against human HepG2 cells assessed as reduction in cell viability grown under glucose medium by MTT assay. Format: functional, cell-based.

pIC50: −log10 of the molar value. In brackets after ≈: the same amount, converted by molar mass. Activity calls are given as the source filed them. The rule behind the calls is not given here. Bounds are passed on as bounds.

Take `Cc1cc(Nc2ccccn2)n(-c2nc(C(F)(F)F)cc(=O)[nH]2)n1`: the fold change (FC) in data set [1], in [5], in data set [14], in data set [16], in [18] and in [19] was 2 throughout. The fold change (FC) was 2 in [20], 2 in [21] and “>=32” in data set [27]. Further, the outcome in [2], in [4], in data set [8], in data set [9], in data set [11] and in data set [12] was Active. Moreover, the result in data set [13], in data set [17], in data set [23], in [24], in data set [25] and in [26] was Active. Also, the outcome in data set [29] was Active. Also, the MIC in data set [3] was found to be 0.12 µM (≈ 0.0404 µg/mL); in [28] it was 0.9 µM (≈ 0.303 µg/mL). Also, the Stabilty in [6] is greater than 99%; in [7], greater than 99%; in data set [10] it was 96%. In addition, the pIC50 in the data set with CHO was 4.64. In [15], this compound had a Kinetic_solubility of 25 µM. The solubility in data set [22] (buffer) was 25 µM (≈ 8.41 µg/mL). In addition, in [30], the deltaA is 300 nm.
With `Cc1ccc(Nc2cc(C)nn2-c2nc(C)cc(O)n2)cc1`, the minimal inhibitory concentration (MIC) in data set [31] amounted to 0.4 µM (≈ 0.118 µg/mL); in data set [32], 0.02 µM (≈ 0.00591 µg/mL); in data set [33] it was 4.8 µM (≈ 1.42 µg/mL); in data set [37], 6 µM (≈ 1.77 µg/mL); in [40] it was 0.2 µM (≈ 0.0591 µg/mL); in data set [28], 2 µM (≈ 0.591 µg/mL). For the same compound, in the data set on Vero, the pIC50 was 5.92. In addition, the figures for the Stabilty in data set [34], in data set [38] and in data set [39] were 73%, 78% and 76%, respectively. For the same compound, the pH-dependent lipophilicity (logD) at 3 h in [35] came out at 2.2. In data set [36], the outcome was Active. In [22] (aqueous, read-out: solubility), the solubility is less than 5 µM.
`Cc1cc(C)n(-c2nc(O)cc(-c3ccccc3)n2)n1`: the pIC50 in [41] was less than 4.52; in the data set with CHO it was 5.10; in the data set with HepG2 [42], 5.40; in the data set on HepG2 [45] it was 5.40. Besides, the MIC in data set [31] came to 0.3 µM (≈ 0.0799 µg/mL); in data set [32], 0.02 µM (≈ 0.00533 µg/mL); in [33], 1.7 µM (≈ 0.453 µg/mL); in data set [37], 1.5 µM (≈ 0.399 µg/mL); in data set [43] it was 0.6 µM (≈ 0.16 µg/mL); in data set [40] it was 0.4 µM (≈ 0.107 µg/mL). In [28], this compound had an MIC of 1.5 µM (≈ 0.399 µg/mL). Further, the values for the Stabilty in data set [34], in data set [38] and in data set [39] were 98%, 22% and 69%, respectively. In data set [35], the logD at 3 h was 2.5. Besides, in data set [36], the outcome was Active. Moreover, in data set [22] (buffer), the solubility is 10 µM (≈ 2.66 µg/mL). For the same compound, the concentration in solution in data set [44] (solubility at 3 µM) came to 180 µM (≈ 47.9 µg/mL).

The MIC is the lowest concentration that inhibits growth of the organism. The term pIC50 denotes the IC50 on a negative log10 scale, so that one unit is a factor of ten. The solubility is the concentration that dissolves in the medium under given conditions. Usually logD stands for the decadic logarithm of the distribution of all forms, ionised or not, between an organic phase and buffer at a given pH.
